Tests used:
[1] = molecular target: MAP kinase p38 (Homo sapiens, UniProt O15264+Q15759+Q16539+P53778); assay: Inhibition of p38 MAPK (unknown origin) using ATF2 as substrate measured after 15 by ELISA
[2] = tested on: MCF7; assay: Antiproliferative activity against human MCF7 cells after 3 days by MTT assay; type: functional, cell-based; conditions: MCF7, 72 h
[3] = tested on: MCF7; assay: Potency index, ratio of Doxorubicin IC50 to compound IC50 against human MCF7 cells; type: functional
[4] = tested on: MCF7; assay: Cell cycle arrest in human MCF7 cells assessed as accumulation at G1 phase after 24 hrs by propidium iodide staining-based flow cytometric method (reference value: 67.2%); type: functional
[5] = tested on: MCF7; assay: Induction of apoptosis in human MCF7 cells assessed as early apoptotic cells after 24 hrs by Annexin-V/propidium iodide staining based FACS analysis (reference value: 2.7%); type: functional
[6] = tested on: MCF7; assay: Induction of apoptosis in human MCF7 cells assessed as viable cells after 24 hrs by Annexin-V/propidium iodide staining based FACS analysis (reference value: 92.7%); type: functional
[7] = tested on: MCF7; assay: Induction of apoptosis in human MCF7 cells assessed as late apoptotic cells after 24 hrs by Annexin-V/propidium iodide staining based FACS analysis (reference value: 4.3%); type: functional
[8] = tested on: MCF7; assay: Induction of apoptosis in human MCF7 cells assessed as increase in caspase3 level at 0.007 uM after 24 hrs by ELISA; type: functional
[9] = tested on: MCF7; assay: Cell cycle arrest in human MCF7 cells assessed as accumulation at S phase after 24 hrs by propidium iodide staining-based flow cytometric method (reference value: 25.1%); type: functional
[10] = tested on: MCF7; assay: Cell cycle arrest in human MCF7 cells assessed as accumulation at G2 phase after 24 hrs by propidium iodide staining-based flow cytometric method (reference value: 6.4%); type: functional
[11] = tested on: MCF7; assay: Induction of apoptosis in human MCF7 cells assessed as increase in caspase9 level at 0.007 uM after 24 hrs by ELISA; type: functional
[12] = tested on: MCF7; assay: Induction of apoptosis in human MCF7 cells assessed as necrotic cells after 24 hrs by Annexin-V/propidium iodide staining based FACS analysis (reference value: 0.3%); type: functional

Compound	IC50 [1] [nM]	IC50 [2] [nM]	also measured
COc1ccc(-c2cc(-c3c(C)oc4c(OC)c5occc5c(OC)c4c3=O)[nH]c(=N)c2C#N)cc1OC	310	10	
COc1c2occc2c(OC)c2c(=O)c(C3=NN(c4ccccc4)C(c4ccc(F)cc4)C3)c(C)oc12 (centres undefined)	1090	40	
COc1ccc(-c2cc(-c3c(C)oc4c(OC)c5occc5c(OC)c4c3=O)nc(=S)[nH]2)cc1OC	1390	50	
COc1ccc(-c2cc(-c3c(C)oc4cc5occc5c(OC)c4c3=O)[nH]c(=N)c2C#N)cc1OC	720	50	
COc1ccc(-c2cc(-c3c(C)oc4c(OC)c5occc5c(OC)c4c3=O)nc(=O)[nH]2)cc1OC		80	
COc1c2occc2c(OC)c2c(=O)c(C3=NN(C(C)=O)C(c4ccc(F)cc4)C3)c(C)oc12 (centres undefined)		150	
COc1c2occc2c(OC)c2c(=O)c(C3=CC(c4ccc(F)cc4)=C4C(N)=NC=NC4N3)c(C)oc12 (centres undefined)		170	Ratio IC50 [3]: 3.6
COc1ccc(-c2cc(-c3c(C)oc4cc5occc5c(OC)c4c3=O)[nH]c(=O)c2C#N)cc1OC		140	
COc1c2occc2c(OC)c2c(=O)c(C3=CC(c4ccc(F)cc4)NO3)c(C)oc12 (centres undefined)	860	40	
COc1c2occc2c(OC)c2c(=O)c(-c3cc(-c4ccc(F)cc4)c(C#N)c(=N)[nH]3)c(C)oc12	630	20	
COc1c2occc2c(OC)c2c(=O)c(-c3cc(-c4ccc(F)cc4)[nH]c(=S)n3)c(C)oc12	380	20	
COc1c2ccoc2cc2oc(C)c(-c3cc(-c4ccc(F)cc4)c(C#N)c(=N)[nH]3)c(=O)c12	190	40	
COc1c2occc2c(OC)c2c(=O)c(-c3cc(-c4ccc(F)cc4)c(C#N)c(=O)[nH]3)c(C)oc12		100	Ratio IC50 [3]: 6
COc1ccc(C2CC(c3c(C)oc4c(OC)c5occc5c(OC)c4c3=O)=NN2C(C)=O)cc1OC (centres undefined)	670	7	Activity [4]: 31.2%; Activity [5]: 17.4%; Activity [6]: 64.1%; Activity [7]: 15.2%; Activity [8]: 446.6 ng/mL; Activity [9]: 24.3%; Activity [10]: 21.2%; Activity [11]: 16.39 ng/mL; Activity [12]: 3.3%
COc1c2occc2c(OC)c2c(=O)c(-c3cc(-c4ccc(F)cc4)[nH]c(=O)n3)c(C)oc12		80	
COc1c2ccoc2cc2oc(C)c(-c3cc(-c4ccc(F)cc4)c(C#N)c(=O)[nH]3)c(=O)c12	230	30	
COc1ccc(C2C=C(c3c(C)oc4c(OC)c5occc5c(OC)c4c3=O)ON2)cc1OC (centres undefined)	1090	50	
